# Calls of active or inactive are those of the source. How the calls were made is not given here.
# Biological target: Induced myeloid leukemia cell differentiation protein Mcl-1 (Homo sapiens) (UniProt Q07820)
# Experiment: blockers of Bid binding to Mcl-1 – biochemical, TR-FRET, dose response (AID 1418)
# Conditions: Mcl-1/Bid peptide binding, TR-FRET (europium/Dy647), 2 hr
# Sequence of Induced myeloid leukemia cell differentiation protein Mcl-1 (Homo sapiens) (Q07820 whole entry, looked up): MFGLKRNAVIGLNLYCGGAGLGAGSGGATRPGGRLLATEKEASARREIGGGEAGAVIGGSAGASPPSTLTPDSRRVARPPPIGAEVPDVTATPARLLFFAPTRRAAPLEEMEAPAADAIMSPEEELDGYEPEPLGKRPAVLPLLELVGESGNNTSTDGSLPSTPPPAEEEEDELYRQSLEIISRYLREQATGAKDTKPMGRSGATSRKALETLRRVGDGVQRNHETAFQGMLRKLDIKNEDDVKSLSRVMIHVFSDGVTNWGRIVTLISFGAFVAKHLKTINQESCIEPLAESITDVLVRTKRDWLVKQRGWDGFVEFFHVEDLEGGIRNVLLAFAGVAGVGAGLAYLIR
row,Structure (SMILES),IC50
1,COc1cccc(OC)c1C(=O)N1CCN(c2ccccn2)CC1,> 54 µM (inactive)
2,COc1ccc(C2(C)NC(=O)N(CC(=O)NCCC3=CCCCC3)C2=O)cc1OC (stereo unspecified),> 54 µM (inactive)
3,O=c1c(O)cccc2cc(O)c(O)c(O)c12,0.92 µM
4,O=C(O)CCCN1C(=O)/C(=C\c2ccc(-c3nc4ccccc4s3)o2)SC1=S,0.53 µM
5,C#CCOCCOCCOCCNc1nc(N2CCN(C(=O)[C@H](CCCCN)n3cc(C(N)CC(C)C)nn3)CC2)nc(N2CCN(C(=O)[C@H](CCC(=O)O)n3cc(C(N)[C@H](C)CC)nn3)CC2)n1 (stereo partly specified),22.2 µM
6,O=C(O)C[C@@H]1C(=O)O[C@@H]2C(COC(=O)c3cc(O)c(O)c(O)c3)O[C@@H](OC(=O)c3cc(O)c(O)c(O)c3)[C@@H](OC(=O)c3cc(O)c(O)c4c3[C@H]1[C@H](O)C(=O)O4)[C@H]2OC(=O)c1cc(O)c(O)c(O)c1 (stereo partly specified),0.95 µM
7,O=C(CN1C(=O)COc2ccccc21)N(Cc1ccc2c(c1)OCO2)CC1CCCO1 (stereo unspecified),> 54 µM (inactive)
8,COc1ccc(-c2nnn(CC(=O)N(CCCO)C(C(=O)NC3CCCC3)c3ccncc3)n2)cc1 (stereo unspecified),> 54 µM (inactive)
9,CC(=O)Cc1cc(O)c2ccccc2c1OC(=O)c1ccc(Br)cc1,> 54 µM (inactive)
10,Cc1cc(C)nc(NCC(O)COc2ccccc2C)n1 (stereo unspecified),> 54 µM (inactive)
11,CNc1nn(-c2cccc(Cl)c2)nc1N,> 54 µM (inactive)
12,COc1cccc(C(=O)Nc2ccc3nc(N4CCN(c5ncccn5)CC4)cc(C)c3c2)c1OC,0.53 µM
13,CCOc1ccc(-c2csc3ncn(-c4ccc(OC)cc4)c(=O)c23)cc1,> 54 µM (inactive)
14,CCCCN(Cc1cc2cc(OC)ccc2[nH]c1=O)C(=O)c1ccccn1,> 54 µM (inactive)
15,CCOC(=O)c1cc(-c2ccc(/C=C3/C(=O)NC(=O)C(C#N)=C3C)o2)ccc1Cl,0.79 µM
16,CCSc1nnc(NC(=O)C(Cc2ccccc2)n2cccc2)s1 (stereo unspecified),> 54 µM (inactive)
17,Cn1c(SCC(=O)N=Nc2c(O)[nH]c3ccccc23)nc2ccccc21,> 54 µM (inactive)
18,Cn1nc(-c2ccc(Cl)cc2)c2cc(C(=O)NCCN3CCOCC3)sc21,> 54 µM (inactive)
19,CCCN1CCC(NC(=S)Nc2ccc(C(=O)OCC)cc2)CC1,> 54 µM (inactive)
20,COc1ccc2[nH]c3c(=O)n(Cc4ccco4)cnc3c2c1,> 54 µM (inactive)
21,COc1ccc(CN2C(=O)c3cccnc3C2Nc2ccc(OC)c(Cl)c2)cc1 (stereo unspecified),0.74 µM
22,O=c1oc2ccccc2n1CCn1c2ccccc2c2nc3ccccc3nc21,8.21 µM
23,O=C(CCN1CCc2ccccc2C1)Nc1cccc(F)c1,> 54 µM (inactive)
24,O=[N+]([O-])C(=c1ccc2c(c1)N1C3=C(CCCC3)CC3CCCCC31N=2)[N+](=O)[O-] (stereo unspecified),0.73 µM

row,Structure (SMILES),IC50
1,COc1cc2c(cc1OC)-c1cc(NCc3ccccn3)nc(=O)n1CC2,0.55 µM
2,CCOc1ccc(-n2c(-c3ccoc3)nc3ccccc3c2=O)cc1,> 54 µM (inactive)
3,O=[N+]([O-])c1cc(Br)c(O)c(/C=N/Nc2nnnn2-c2cccc3ccccc23)c1,13.9 µM
4,CCc1ccc(CCC(=O)Nc2ccc(C)cc2C)o1,> 54 µM (inactive)
5,Cc1ccccc1C(=O)NC(=S)Nc1sc2c(c1C#N)CCCC2,> 54 µM (inactive)
6,O=C1N=c2ccccc2=C1c1c(O)n(-c2cccc(F)c2)[nH]c1=O,1.56 µM
7,Cc1ccsc1C(=O)OCC(=O)N1CCOCC1,> 54 µM (inactive)
8,COc1ccccc1C1CC(c2ccccc2)Nc2ncnn21 (stereo unspecified),> 54 µM (inactive)
9,CCN(CC)C(=O)CN(C)S(=O)(=O)c1cccc2nsnc12,> 54 µM (inactive)
10,COc1ccc(OC)c(Nc2nc(-c3cccc([N+](=O)[O-])c3)nc3ccccc23)c1,> 54 µM (inactive)
11,Cc1c(N=Nc2c(-c3ccc([N+](=O)[O-])cc3)[nH]n(C(N)=S)c2=O)cccc1[N+](=O)[O-],2.92 µM
12,COc1ccc2nc(-n3c(O)c(C4=c5ccccc5=NC4=O)[nH]c3=S)sc2c1,1.38 µM
13,C/C(=N/NC(=O)c1cc(-c2cccc([N+](=O)[O-])c2)n[nH]1)c1ccc(Cl)cc1,2.27 µM
14,COc1ccc(C2C(C#N)=C(N)OC3=C2C(=O)CCC3)cc1OC (stereo unspecified),> 54 µM (inactive)
15,O=C(NCCc1csc(-c2cccnc2)n1)c1cccs1,> 54 µM (inactive)
16,CC(C(=O)O)n1nc2ccccc2n1 (stereo unspecified),> 54 µM (inactive)
17,CCOc1ccccc1Nc1nc(-c2sc(NC(=O)c3ccc([N+](=O)[O-])cc3)nc2C)cs1,1.37 µM
18,CN(CC(=O)Nc1cccc(C#N)c1)Cc1ccc(Cl)cc1,> 54 µM (inactive)
19,COC(=O)C(CC(C)C)NC(=O)c1ccc(F)cc1 (stereo unspecified),> 54 µM (inactive)
20,COc1ccc(Nc2ncc(C(=O)N3CCN(c4ccc(F)cc4)CC3)c3ccccc23)cc1,> 54 µM (inactive)
21,CN(C(=O)c1ccc(C#N)cc1)c1nnc(-c2cnccn2)s1,> 54 µM (inactive)
22,Cc1ccc(OCC(=O)NCc2ccco2)c([N+](=O)[O-])n1,> 54 µM (inactive)
23,Cc1ccc(NC(=O)CN2C(=O)S/C(=C/c3ccc(-c4cc(C(=O)O)ccc4C)o3)C2=O)cc1C,2.69 µM
24,C=CCn1c(O)c(C(C)=NCC2CCCO2)c(=O)[nH]c1=O (stereo unspecified),0.48 µM

row,Structure (SMILES),IC50
1,Cc1ccc(S(=O)(=O)CCNC(=O)Cc2ccccc2)cc1,> 54 µM (inactive)
2,O=C(CN1C(=O)/C(=C2\SC(=S)N(C3CCS(=O)(=O)C3)C2=O)c2ccccc21)Nc1ccc(F)cc1 (stereo unspecified),0.72 µM
3,O=C(COC(=O)CCS(=O)(=O)c1ccc(Cl)cc1)Nc1ncc(Cl)cc1Cl,> 54 µM (inactive)
4,C#CCOCCOCCOCCNc1nc(N2CCN(C(=O)[C@H](Cc3cc4ccccc4[nH]3)n3cc([C@@H](N)C(C)CC)nn3)CC2)nc(N2CCN(C(=O)[C@H](Cc3cc4ccccc4[nH]3)n3cc([C@@H](N)Cc4ccc(O)cc4)nn3)CC2)n1 (stereo partly specified),> 54 µM (inactive)
5,Cc1cc(NC2C3CC4CC(C3)CC2C4)n2nnnc2n1 (stereo unspecified),> 54 µM (inactive)
6,Clc1ccc(OCCCNCc2ccccc2)c(Br)c1,> 54 µM (inactive)
7,CCc1cccc(CC)c1NC(=S)N1CCn2cccc2C1c1cccnc1 (stereo unspecified),> 54 µM (inactive)
8,c1ccc2nc3ccccc3nc2c1,> 54 µM (inactive)
9,COc1cc(OC)cc(C(=O)N[C@H](C(=O)OCC(=O)NC(=O)c2cccn2C)C(C)C)c1,> 54 µM (inactive)
10,O=C(CN1C(=O)NC2(CCc3ccccc3C2)C1=O)Nc1ccc(F)cc1 (stereo unspecified),> 54 µM (inactive)
11,C=CCOC(=O)/C(=C/c1ccco1)NC(=O)/C=C/c1ccccc1,> 54 µM (inactive)
12,COc1ccccc1N1CCN(CC(=O)c2c(C)[nH]c3ccccc23)CC1,> 54 µM (inactive)
13,O=C(Cc1ccccc1)Nc1scc(-c2ccccc2)c1C(=O)N1CCOCC1,> 54 µM (inactive)
14,O=C(CSCc1ccccc1)NCCCN1CCOCC1,> 54 µM (inactive)
15,CN(C)S(=O)(=O)c1cccc(NC(=O)c2cc3c(=O)n4ccccc4nc3s2)c1,> 54 µM (inactive)
16,O=C(Nc1nnc(-c2ccco2)s1)C1CC1,> 54 µM (inactive)
17,CN(C1=NC(=O)CS1)c1ccc(O)cc1,> 54 µM (inactive)
18,COC(=O)c1ccc(-c2nc3cc(Cl)c(N)cc3s2)cc1,> 54 µM (inactive)
19,CCOC(=O)c1ccc(NC(=O)Oc2ccccc2)cc1,> 54 µM (inactive)
20,CCN1/C(=C\C=C2\C(=O)N(c3ccccc3)C(=S)N2C)Sc2ccccc21,2.97 µM
21,COC(=O)c1ccccc1S(=O)(=O)N1CCn2cccc2C1C (stereo unspecified),> 54 µM (inactive)
22,O=C(Nc1ccc(F)cc1)Nc1ccc(Oc2ncnc3cc(Cl)ccc23)nc1,> 54 µM (inactive)
23,Cc1nc2sc(C(c3cccs3)N3CCOCC3)c(O)n2n1 (stereo unspecified),> 54 µM (inactive)
24,CCOc1ccccc1NC(=O)CN(C)S(=O)(=O)c1cccc2nsnc12,> 54 µM (inactive)

row,Structure (SMILES),IC50
1,O=S(=O)(c1ccccc1F)N1CCN(Cc2nc3ccccc3[nH]2)CC1,> 54 µM (inactive)
2,Cc1ccc(S(=O)(=O)N/N=C/c2cnn(C)c2C)cc1,> 54 µM (inactive)
3,COc1ccc(-c2nc3ccccc3c(=O)n2CCOc2cccc(C)c2C)cc1,> 54 µM (inactive)
4,O=C(O)CCN1C(=O)/C(=C\c2ccc(-c3nc4ccccc4s3)o2)SC1=S,0.57 µM
5,COc1ccc(OC)c(NC(=S)N(CCc2c(C)[nH]c3ccc(C)cc23)Cc2cccs2)c1,> 54 µM (inactive)
6,Cc1ccc(Cl)c(OCCCN(C)Cc2ccccc2)c1,> 54 µM (inactive)
7,O=C(Cc1c(F)cccc1Cl)Nc1ccon1,> 54 µM (inactive)
8,O=c1[nH]c(-c2ccccc2Cl)nc2c1sc(=S)n2-c1ccccc1,> 54 µM (inactive)
9,CCO[C@@H]1OC(C(=O)N2CCN(Cc3ccccc3)CC2)=C[C@H](C2CC2)[C@H]1CCCO,> 54 µM (inactive)
10,CCNc1ccc2noc3c2c1C(=O)c1ccccc1-3,14.7 µM
11,O=C(O)COc1ccccc1C(Nc1ccccn1)c1cc(Cl)c2cccnc2c1O (stereo unspecified),5.42 µM
12,COCCN1Cc2cccc(C(=O)Nc3cccc(C)c3C)c2C1=O,> 54 µM (inactive)
13,CCC1Oc2ccc(C)cc2N(CC(=O)N(Cc2cccnc2)Cc2ccc(C)o2)C1=O (stereo unspecified),> 54 µM (inactive)
14,O=C(N/N=C/c1ccc([N+](=O)[O-])o1)c1cc2c(ccc3ccccc32)o1,1.71 µM
15,OCC1CCCN(c2nc(CN3CCCCC3)nc3scc(-c4ccccc4)c23)C1 (stereo unspecified),> 54 µM (inactive)
16,O=C(NCc1ccco1)c1cccn2c(=O)c3cc4ccccc4cc3nc12,0.52 µM
17,O=C(O)[C@H](Cc1ccccc1)N1Cc2ccccc2C1=O,22.3 µM
18,C=CCn1cc(C(=O)NCc2ccco2)c(=O)c2cc(S(=O)(=O)N3CCCCCC3)ccc21,> 54 µM (inactive)
19,COC(=O)c1ccc(NC(=O)c2ccccc2N(C)S(=O)(=O)c2ccccc2)cc1,> 54 µM (inactive)
20,C#CCn1cc(/C=N/NC(=O)COc2cccc3cccnc23)c2ccccc21,0.86 µM
21,O=C(COC(=O)CCNS(=O)(=O)c1ccc2c(c1)OCCO2)NC1CCCc2ccccc21 (stereo unspecified),> 54 µM (inactive)
22,COc1cc(-c2nc(-c3ccc(NC(=O)c4ccc(Br)o4)cc3)no2)cc(OC)c1OC,1.81 µM
23,Cn1c2ccccc2c(=O)c2c(=O)n(C3CCCCCC3)c(C3CCCCC3)nc21,2.27 µM
24,Oc1ccc(/C=N/Nc2ccnc3cc(Cl)ccc23)c(O)c1,6.69 µM
